From patent US20240245793A1, “PSD-95 INHIBITORS AND USES THEREOF” (priority 2021, published 2024)
Where two headings read alike, the source gives them in different places. Each block holds one molecule with its values, some of them ahead of it. Starred links: 1 amine or outer side, 2 acyl side, 3 side chain; linkers in the order of their positions; H or OH if unused. Positions of bridges follow the written chain, without caps; N, C: chain ends. Residues, ends and D or L forms follow the SMILES beside them. Chains are numbered I, II in the order given. CO(CH2CH2O)5CH2CH2CO = O=C(CCOCCOCCOCCOCCOCCC(=O)[*:2])[*:1]

Columns and labels:
[1] = target: PDZ1-2 of PSD-95 (Homo sapiens, UniProt P78352); experiment: Fluorescence polarization (FP) competition assay, affinity to PDZ1-2 of PSD-95; type: binding; conditions: mean ± SEM
Procedure: First, a saturation binding curve was obtained to determine KD values for the interaction between a fluorescent dimeric probe and PDZ1-2 of PSD-95. Increasing concentrations of PDZ1-2 (0.015-30 nM) were added to a constant concentration of the probe (0.5 nM). The fluorescence polarization (FP) of the sample was measured at excitation/emission wavelength of 635/670 nm and the generated FP values were fitted to a one site binding model using the software GraphPad Prism. […] The FP values were fitted to a one site competition (variable slope) model in GraphPad prism. The resulting IC50 values were converted to Ki values as described previously by Nikolovska-Coleska et al., Anal. Biochem., 2004, 332, 261).

[2] = target: T1, plasmin (Homo sapiens, UniProt P00747); experiment: In vitro plasmin stability assay; type: in vitro ADME; conditions: isolated enzyme plasmin
T1 construct: Tissue plasminogen factor (tPA), which generates plasmin from plasminogen
Procedure: At selected time points during the incubation, the ligands were extracted from 80 μL of assay matrix by treatment with 80 μL of 50% acetonitrile (ACN). The samples were filtered and analysed by UPLC to determine the amount of ligand remaining. LC-MS analysis was performed to confirm ligand integrity and identify cleavage sites.

[3] = OPEG4 dimers without CPP, n ≥ 3 (Table 4, FIG. 1)
[4] = dimeric ligands fused to L-TAT and L-Arg9, n ≥ 3 (Table 5, FIG. 2)

T1 sequence (P00747 581-810 limits assumed, species assumed): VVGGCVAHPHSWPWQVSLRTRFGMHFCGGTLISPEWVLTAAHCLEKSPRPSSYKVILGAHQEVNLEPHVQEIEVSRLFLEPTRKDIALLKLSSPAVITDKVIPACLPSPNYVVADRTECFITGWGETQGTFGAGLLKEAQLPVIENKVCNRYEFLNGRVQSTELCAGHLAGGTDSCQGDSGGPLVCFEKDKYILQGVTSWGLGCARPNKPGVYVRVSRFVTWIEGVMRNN
T1 sequence (P00747 97-580 partner limits assumed, species assumed): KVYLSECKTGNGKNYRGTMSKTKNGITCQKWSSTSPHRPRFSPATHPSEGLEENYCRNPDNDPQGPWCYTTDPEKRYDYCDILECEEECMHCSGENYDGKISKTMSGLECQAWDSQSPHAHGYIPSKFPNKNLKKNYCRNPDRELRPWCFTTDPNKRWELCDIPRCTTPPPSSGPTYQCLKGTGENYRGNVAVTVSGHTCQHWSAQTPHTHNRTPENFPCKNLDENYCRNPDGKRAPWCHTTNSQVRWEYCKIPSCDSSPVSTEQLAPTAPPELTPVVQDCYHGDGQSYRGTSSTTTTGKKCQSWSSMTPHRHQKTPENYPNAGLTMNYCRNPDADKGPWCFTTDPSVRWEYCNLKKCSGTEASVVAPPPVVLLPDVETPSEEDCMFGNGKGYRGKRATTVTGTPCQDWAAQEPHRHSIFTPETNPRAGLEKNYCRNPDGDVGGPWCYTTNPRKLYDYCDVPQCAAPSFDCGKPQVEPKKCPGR
Sequence of PDZ1-2 of PSD-95 (P78352 61-249 limits assumed): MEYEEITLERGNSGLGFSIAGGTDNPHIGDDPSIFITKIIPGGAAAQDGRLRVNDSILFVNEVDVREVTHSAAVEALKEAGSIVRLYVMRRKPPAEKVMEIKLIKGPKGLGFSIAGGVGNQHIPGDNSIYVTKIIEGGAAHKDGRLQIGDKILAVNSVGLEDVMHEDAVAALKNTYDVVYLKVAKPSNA

Structure (SMILES): CC(C)C[C@H](NC(=O)[C@@H](NC(=O)[C@H](CCC(=O)O)NC(=O)[C@H](CCCCN)NC(=O)CCOCCOCCOCCOCCOCCC(=O)N[C@@H](CCCCN)C(=O)N[C@@H](CCC(=O)O)C(=O)N[C@H](C(=O)N[C@@H](CC(C)C)C(=O)N[C@H](C(=O)O)C(C)C)[C@@H](C)O)[C@@H](C)O)C(=O)N[C@H](C(=O)O)C(C)C [Compound 2, OPEG4-(KETLV)2]
Ki [1, 3]: 11.1 ± 0.3 nM

Structure (SMILES): CC(C)[C@H](NC(=O)[C@@H](NC(=O)[C@@H](NC(=O)[C@H](CCC(=O)O)NC(=O)[C@H](CCCCN)NC(=O)CCOCCOCCOCCOCCOCCC(=O)N[C@@H](CCCCN)C(=O)N[C@@H](CCC(=O)O)C(=O)N[C@H](C(=O)N[C@H](C(=O)N[C@H](C(=O)O)C(C)C)[C@@H](C)O)[C@@H](C)O)[C@@H](C)O)[C@@H](C)O)C(=O)O [Compound 3, OPEG4-(KETTV)2]
Ki [1, 3]: 14.4 ± 0.4 nM

Structure (SMILES): CC(=O)N[C@@H](Cc1ccc(O)cc1)C(=O)NCC(=O)N[C@@H](CCCNC(=N)N)C(=O)N[C@@H](CCCCN)C(=O)N[C@@H](CCCCN)C(=O)N[C@@H](CCCNC(=N)N)C(=O)N[C@@H](CCCNC(=N)N)C(=O)N[C@@H](CCC(N)=O)C(=O)N[C@@H](CCCNC(=N)N)C(=O)N[C@@H](CCCNC(=N)N)C(=O)N[C@@H](CCCNC(=N)N)C(=O)N(CCOCCOCCC(=O)N[C@@H](CCCCN)C(=O)N[C@@H](CCC(=O)O)C(=O)N[C@H](C(=O)N[C@@H](CC(C)C)C(=O)N[C@H](C(=O)O)C(C)C)[C@@H](C)O)CCOCCOCCC(=O)N[C@@H](CCCCN)C(=O)N[C@@H](CCC(=O)O)C(=O)N[C@H](C(=O)N[C@@H](CC(C)C)C(=O)N[C@H](C(=O)O)C(C)C)[C@@H](C)O [Compound 11]
Ki [1, 4]: 5.4 ± 0.9 nM
half-life ([2]; read-out: T1/2): 5.77 ± 1.75 h

Structure (SMILES): CC(=O)N[C@@H](Cc1ccc(O)cc1)C(=O)NCC(=O)N[C@@H](CCCNC(=N)N)C(=O)N[C@@H](CCCCN)C(=O)N[C@@H](CCCCN)C(=O)N[C@@H](CCCNC(=N)N)C(=O)N[C@@H](CCCNC(=N)N)C(=O)N[C@@H](CCC(N)=O)C(=O)N[C@@H](CCCNC(=N)N)C(=O)N[C@@H](CCCNC(=N)N)C(=O)N[C@@H](CCCNC(=N)N)C(=O)N(CCOCCOCCC(=O)N[C@@H](CCCCN)C(=O)N[C@@H](CCC(=O)O)C(=O)N[C@H](C(=O)N[C@H](C(=O)N[C@H](C(=O)O)C(C)C)[C@@H](C)O)[C@@H](C)O)CCOCCOCCC(=O)N[C@@H](CCCCN)C(=O)N[C@@H](CCC(=O)O)C(=O)N[C@H](C(=O)N[C@H](C(=O)N[C@H](C(=O)O)C(C)C)[C@@H](C)O)[C@@H](C)O [Compound 13]
Ki [1, 4]: 6.5 ± 0.7 nM
half-life ([2]; read-out: T1/2): 9.5 ± 3 h

Structure (SMILES): CC(=O)N[C@@H](Cc1ccc(O)cc1)C(=O)NCC(=O)N[C@@H](CCCNC(=N)N)C(=O)N[C@@H](CCCCN)C(=O)N[C@@H](CCCCN)C(=O)N[C@@H](CCCNC(=N)N)C(=O)N[C@@H](CCCNC(=N)N)C(=O)N[C@@H](CCC(N)=O)C(=O)N[C@@H](CCCNC(=N)N)C(=O)N[C@@H](CCCNC(=N)N)C(=O)N[C@@H](CCCNC(=N)N)C(=O)N(CCOCCOCCC(=O)N[C@@H](CCCCN)C(=O)N[C@@H](CCC(=O)O)C(=O)N[C@H](C(=O)N[C@H](C(=O)N[C@H](C(=O)O)C(C)C)C(C)C)[C@@H](C)O)CCOCCOCCC(=O)N[C@@H](CCCCN)C(=O)N[C@@H](CCC(=O)O)C(=O)N[C@H](C(=O)N[C@H](C(=O)N[C@H](C(=O)O)C(C)C)C(C)C)[C@@H](C)O [Compound 15]
Ki [1, 4]: 2.1 ± 0.2 nM
half-life ([2]; read-out: T1/2): 6.42 ± 2.17 h

Structure (SMILES): CC[C@H](C)[C@H](NC(=O)CCOCCOCCN(CCOCCOCCC(=O)N[C@H](C(=O)N[C@@H](CCC(=O)O)C(=O)N[C@H](C(=O)N[C@@H](CC(=O)O)C(=O)N[C@H](C(=O)O)C(C)C)[C@@H](C)O)[C@@H](C)CC)C(=O)[C@@H]1CC(=O)NC[C@H](NC(C)=O)C(=O)N[C@@H](CCCCN)C(=O)N[C@@H](C)C(=O)N2CCC[C@H]2C(=O)N[C@@H](CCC(=O)O)C(=O)N[C@@H]([C@@H](C)O)C(=O)N[C@@H](C)C(=O)N[C@@H](CC(C)C)C(=O)N1)C(=O)N[C@@H](CCC(=O)O)C(=O)N[C@H](C(=O)N[C@@H](CC(=O)O)C(=O)N[C@H](C(=O)O)C(C)C)[C@@H](C)O [Compound 60]
half-life at 100 μM ([2]; read-out: T1/2): 24 h

Further lines, results first:

Ki [1, 3]: 15.8 ± 1.2 nM
Structure (SMILES): CC(C)[C@H](NC(=O)[C@@H](NC(=O)[C@@H](NC(=O)[C@H](CCC(=O)O)NC(=O)[C@H](CCCCN)NC(=O)CCOCCOCCOCCOCCOCCC(=O)N[C@@H](CCCCN)C(=O)N[C@@H](CCC(=O)O)C(=O)N[C@H](C(=O)N[C@H](C(=O)N[C@H](C(=O)O)C(C)C)C(C)C)[C@@H](C)O)[C@@H](C)O)C(C)C)C(=O)O [Compound 4, OPEG4-(KETVV)2] (I: KETVV-OH / II: KETVV-OH; linker I:N-II:N via CO(CH2CH2O)5CH2CH2CO; C-terminus assumed)

half-life at 100 μM [2]: 0.817 ± 0.15 h
Structure (SMILES): CC[C@H](C)[C@H](NC(=O)CCOCCOCCN(CCOCCOCCC(=O)N[C@H](C(=O)N[C@@H](CCC(=O)O)C(=O)N[C@H](C(=O)N[C@@H](CC(=O)O)C(=O)N[C@H](C(=O)O)C(C)C)[C@@H](C)O)[C@@H](C)CC)C(=O)[C@H](CCCCN)NC(=O)[C@H](CO)NC(=O)[C@H](Cc1c[nH]cn1)NC(=O)[C@H](C)NC(=O)[C@H](Cc1c[nH]cn1)NC(=O)[C@H](C)NC(=O)[C@H](CCC(N)=O)NC(=O)[C@H](CCCCN)NC(=O)[C@H](CCCNC(=N)N)NC(=O)[C@@H](NC(=O)[C@H](CCCNC(=N)N)NC(=O)[C@H](CCCNC(=N)N)NC(=O)[C@H](CCCNC(=N)N)NC(=O)[C@H](CC(C)C)NC(=O)[C@@H](NC(=O)[C@@H](NC(=O)[C@H](CC(C)C)NC(=O)[C@H](CC(C)C)NC(C)=O)[C@@H](C)CC)[C@@H](C)CC)[C@@H](C)CC)C(=O)N[C@@H](CCC(=O)O)C(=O)N[C@H](C(=O)N[C@@H](CC(=O)O)C(=O)N[C@H](C(=O)O)C(C)C)[C@@H](C)O [Compound 52]

half-life at 100 μM [2]: 0.217 ± 0.0667 h
Structure (SMILES): CC[C@H](C)[C@H](NC(=O)CCOCCOCCN(CCOCCOCCC(=O)N[C@H](C(=O)N[C@@H](CCC(=O)O)C(=O)N[C@H](C(=O)N[C@@H](CC(=O)O)C(=O)N[C@H](C(=O)O)C(C)C)[C@@H](C)O)[C@@H](C)CC)C(=O)[C@H](C)NC(=O)[C@H](CC(C)C)NC(=O)[C@H](CCCCN)NC(=O)[C@H](CC(C)C)NC(=O)[C@H](C)NC(=O)[C@H](C)NC(=O)[C@H](CCCCN)NC(=O)[C@H](CC(C)C)NC(=O)[C@H](C)NC(=O)[C@H](CCCCN)NC(=O)[C@H](CC(C)C)NC(=O)[C@H](C)NC(=O)[C@H](CC(C)C)NC(=O)[C@H](CCCCN)NC(=O)[C@H](CC(C)C)NC(=O)[C@H](C)NC(=O)[C@H](CC(C)C)NC(=O)[C@H](CCCCN)NC(C)=O)C(=O)N[C@@H](CCC(=O)O)C(=O)N[C@H](C(=O)N[C@@H](CC(=O)O)C(=O)N[C@H](C(=O)O)C(C)C)[C@@H](C)O [Compound 54]

half-life at 100 μM [2]: 15.2 h
Structure (SMILES): CC[C@H](C)[C@H](NC(=O)CCOCCOCCN(CCOCCOCCC(=O)N[C@H](C(=O)N[C@@H](CCC(=O)O)C(=O)N[C@H](C(=O)N[C@@H](CC(=O)O)C(=O)N[C@H](C(=O)O)C(C)C)[C@@H](C)O)[C@@H](C)CC)C(=O)[C@H](Cc1ccccc1)NC(=O)[C@H](CCC(N)=O)NC(=O)CNC(=O)[C@H](CCCNC(=N)N)NC(=O)[C@H](CC(C)C)NC(=O)[C@H](CC(C)C)NC(=O)[C@H](CCCNC(=N)N)NC(=O)[C@H](CC(C)C)NC(=O)[C@H](Cc1ccc(O)cc1)NC(=O)[C@@H](NC(=O)[C@H](CC(C)C)NC(=O)[C@@H]1CCCN1C(C)=O)[C@@H](C)CC)C(=O)N[C@@H](CCC(=O)O)C(=O)N[C@H](C(=O)N[C@@H](CC(=O)O)C(=O)N[C@H](C(=O)O)C(C)C)[C@@H](C)O [Compound 56]

half-life at 100 μM [2]: 24 h
Structure (SMILES): CC[C@@H](C)[C@@H](NC(=O)[C@@H](CC(C)C)NC(=O)[C@H]1CCCN1C(C)=O)C(=O)N[C@H](Cc1ccc(O)cc1)C(=O)N[C@H](CC(C)C)C(=O)N[C@H](CCCNC(=N)N)C(=O)N[C@H](CC(C)C)C(=O)N[C@H](CC(C)C)C(=O)N[C@H](CCCNC(=N)N)C(=O)NCC(=O)N[C@H](CCC(N)=O)C(=O)N[C@H](Cc1ccccc1)C(=O)N(CCOCCOCCC(=O)N[C@H](C(=O)N[C@@H](CCC(=O)O)C(=O)N[C@H](C(=O)N[C@@H](CC(=O)O)C(=O)N[C@H](C(=O)O)C(C)C)[C@@H](C)O)[C@@H](C)CC)CCOCCOCCC(=O)N[C@H](C(=O)N[C@@H](CCC(=O)O)C(=O)N[C@H](C(=O)N[C@@H](CC(=O)O)C(=O)N[C@H](C(=O)O)C(C)C)[C@@H](C)O)[C@@H](C)CC [Compound 58]

half-life at 100 μM [2]: 24 h
Structure (SMILES): CC[C@H](C)[C@H](NC(=O)CCOCCOCCN(CCOCCOCCC(=O)N[C@H](C(=O)N[C@@H](CCC(=O)O)C(=O)N[C@H](C(=O)N[C@@H](CC(=O)O)C(=O)N[C@H](C(=O)O)C(C)C)[C@@H](C)O)[C@@H](C)CC)C(=O)[C@H](CCCCN)NC(=O)CCCNC(=O)CC[C@@H]1NC(=O)[C@@H](CCCNC(=N)N)NC(=O)[C@H](CCCNC(=N)N)NC(=O)[C@@H](CCCNC(=N)N)NC(=O)[C@H](CCCNC(=N)N)NC(=O)[C@H](Cc2ccc3ccccc3c2)NC(=O)[C@@H](Cc2ccccc2)NC(=O)[C@H](Cc2ccccc2)NC1=O)C(=O)N[C@@H](CCC(=O)O)C(=O)N[C@H](C(=O)N[C@@H](CC(=O)O)C(=O)N[C@H](C(=O)O)C(C)C)[C@@H](C)O [Compound 62]
